Legend:
SKOV3 ovarian cells = experiment: Cytotoxicity against SKOV3 ovarian cancer cells (ATP content, CellTiter-Glo); format: cell-based; conditions: DAR ratio 3.39 (Synagis-SMCC-DM1), 3.50 (Trastuzumab-SMCC-DM1), 6.59 (IIIa), 6.99 (IIIc)
Experimental: SKOV3 ovarian cells are incubated with the effectors for a period corresponding to 2 to 3 times their estimated doubling time and the amount of viable cells is determine by measuring ATP content in the wells. […] All ADCs are diluted in DPBS to 6× the highest concentration tested, followed by 10 3-fold serial dilutions in DPBS for a total of 11 concentration points. Each point is added to triplicate wells. DPBS is added in wells to measure the maximum growth. Cells are diluted at their appropriate seeding density (ranging from 150 to 1000 cells per well) in complete media supplemented with glutamine 2 mM, serum and antibiotic cocktail. They are distributed in white, opaque bottom, tissue-culture treated 384 well plates and incubated for 24 hrs at 37° C.+5% CO2. […] Total ATP is measured using CellTiter-Glo reagent from Promega as recommended by the supplier. […] Signal output is measured on a luminescence plate reader (envision, Perkin Elmer) set at an integration time of 0.1 sec. […]
Each concentration point (S) is normalized to the negative control wells (NC) and expressed as % survival (NC-S/NC×100). Potency (IC50) and efficacy are calculated from a non-linear curve fit of the points versus log of the concentrations without constrain on the slope. Refined data are analysed using Prism software.

[1] = Half-life of model acyl hydrazones in a simulated lysosomal environment (pH 4.5); format: physicochemical; conditions: simulated lysosomal environment (acidic buffer)
Excerpt: Ranging from the intracellularly readily cleavable linkers such as the acyl hydrazones to the relatively stable non-cleavable linkers, having the ability to tune the rate of release of the payload and to improve plasma stability provides opportunities not only to target a greater variety of diseased cells, but also to design agents tailored to achieve a better therapeutic window. Towards the goal of developing enhanced control of ADC linker stability, several model heterocyclic acyl hydrazones whose lability is modulated either by steric or stereoelectronic effects have been prepared.
Towards the goal developing enhanced control of ADC linker stability, several model cyclic acyl hydrazones whose lability is modulated by different substitutions have been prepared. Exemplary acyl hydrazones containing a substituted phenyl group adjacent to the imine carbon have been synthesized. […] Analogues of the heterocyclic linker compounds in Table 1 have been incorporated into linkers, using a similar strategy as employed in the linker synthesis in Mylotarg, as described in greater detail herein below

| half-life [1] | Compound | IC50 (SKOV3 ovarian cells) |
| --- | --- | --- |
|  | Synagis-SMCC-DM1: negative control ADC | 9.64 nM |
| 2.32 h | CC(=O)N/N=C1\CCOc2ccc(F)cc21 [E] |  |

Reference: patent US11850287B2, “Heterocyclic acyl hydrazone linkers, methods and uses thereof” (Ontario Institute for Cancer Research (OICR), priority 2017, dated 2023)
